From patent US20210015834A1, “NK-1 ANTAGONISTS FOR USE IN THE TREATMENT OF OCULAR PAIN” (priority 2018, published 2021)

What was measured:
mouse cornea nociception = assay: Measurement of cornea sensitivity, eye-wiping test (NaCl 5M); format: in vivo, mice; settings: for MPE increase, overall: three experiments; for MPE (maximal possible effect): one 10 μl drop
From the text: 8 week-old C57BL6/N (Charles-River, Italy) and B6.Cg-Tac1^tm1Bbm/J (SP-KO mouse, Jackson) male mice were used in all experiments. Carbon dioxide inhalation and subsequent cervical dislocation were applied to euthanize the animals. All experimental protocols were approved by the Animal Care and Use Committee of the IRCCS San Raffaele Scientific Institute, in accordance with the ARVO Statement for the Use of Animals in Ophthalmic and Vision Research.
Mice 8-week-old C57BL6/N (Charles-River, Italy) and B6.Cg-Tac1^tm1Bbm/J (Jackson) corneal sensitivity was measured with the eye wiping test^36. Briefly, animals were placed individually in an empty cage for 5 min to get acclimatized; one drop (10 μl) of NaCl 5M was put into the right eye of the animal and eye wipings with the ipsilateral forepaw were counted for 30 s. Subsequently, a drop (10 μl) of Fosaprepitant (2, 10 and 50 mg/mL, powder was weighted and dissolved in PBS to reach the desired final concentration, Ivemend, Merck Sharp & Dohme B.V), PBS, Diclofenac (0.1%, Dicloftil, Farmingea) or Oxybuprocaine chloride (4 mg/ml, Novesina, Laboratoire Thea) was put on the same eye and left for 3 min. […] Three experiments were performed, each with 8 mice per group. In a sub-group of experiments, cornea sensitivity was tested 24 hours after 10 days of topical treatment (10 μl) with 2 mg/mL Fosaprepitant (6 times/day).
Anti-nociceptive effect was calculated as maximal possible effect (% MPE or MPE %) for each mouse according to the following formula:
% MPE=100×(post-treatment wipe count−pre-treatment wipe count)/(0−pre-treatment wipe count).
Unpaired t-test was used to evaluate the differences in nociception after different treatments. A p value <0.05 was considered to be statistically significant. The statistical software GraphPad Prism 5.0 (GraphPad Software, La Jolla, Calif.) was used for all analyses. All data were expressed as mean±standard error of the means (SEM). All methods were performed in accordance with the relevant guidelines and regulations.

ocular pain = assay: Subjective ocular pain score (0-10) in a treated patient; format: in vivo, human
From the text: (§1) One patient affected with Stage II (Foster) ocular cicatritial pemphigoid and intractable ocular pain was recruited on a compassionate trial of Fosaprepitant, upon administration and acceptance of informed consent, after consultation with the San Raffaele Hospital Ethics Committee. The patient reported the pain to be located on the ocular surface of both eyes and rated it 9/10 on the right eye and 2/10 on the left eye. Visual acuity was light perception in both eyes and the left eye presented a descemetocele. In the right eye the cornea presented diffuse punctate keratopathy, and conjunctival scarring. All the medications in use at time of enrollment were maintained. These included topical medications: tacrolimus 0.02% 3 times a day, dexamethasone phosphate twice a day, Timolol-brinzolamide drops twice a day, lubricants 6 times a day. In addition, the patient was taking systemic prednisone (25 mg); other systemic immunosuppressants had been previously tried to control the disease but had been suspended due to inefficacy or intolerance. In an unsuccessful attempt to control ocular pain, the prednisone dosage was raised up to 25 mg per day and the patient had been started 3 months before with opioid analgesic Tapentadol 50 mg bid and paracetamol 1000 mg tid. Only the right eye was treated. In this study, the patient received treatment with ocular Fosaprepitant 10 mg/mL (50 μl) 6 times/day for 30 days.
(§2) Different filament lengths were tried (starting from 60 mm, 5 mm intervals) until response, and noted. In order to quantify subjective ocular pain, the treated patient was asked to rate the pain felt in the treated eye on a scale from 0 (no pain) to 10 (worst possible pain) before and after the treatment^38.

corneal sensitivity = assay: Corneal sensitivity, Cochet-Bonnet aesthesiometer, in a treated patient; format: in vivo, human
From the text: as §1
To test corneal sensitivity, a Cochet-Bonnet aesthesiometer (60 mm in length, 0.12 mm diameter) was used. The head of the subject was placed on the chinrest of the slit lamp, and the Cochet-Bonnet filament was neared the volunteer's eye with a perpendicular angle.
as §2

ocular surface [1] = assay: Gross signs of ocular surface toxicity in the human subject; format: in vivo; settings: topical Fosaprepitant 10 mg/ml 6 times a day for 30 days
From the text: as §1, with “In this study, the patient received treatment with ocular Fosaprepitant 10 mg/mL (50 μl) 6 times/day for 30 days.” left out

cornea = settings: topical Fosaprepitant 10 mg/ml 6 times a day; cited from earlier work
ocular surface [2] = assay: Gross signs of ocular surface toxicity in mice; settings: topical Fosaprepitant
[3] = Fosaprepitant 10 mg/ml 6 times a day, after one month of treatment

## C[C@@H](O[C@H]1OCCN(Cc2nc(O)n(P(=O)(O)O)n2)[C@H]1c1ccc(F)cc1)c1cc(C(F)(F)F)cc(C(F)(F)F)c1 [Fosaprepitant, [3-{[(2R,3S)-2-[(1R)-1-[3,5-bis(trifluoromethyl)phenyl]ethoxy]-3-(4-fluorophenyl)morpholin-4-yl]methyl}-5-oxo-2H-1,2,4-triazol-1-yl]phosphonic acid]
Mouse cornea nociception; Fosaprepitant 2 mg/ml 6 times a day for 10 days, compared to 10 days PBS instillation, p=0.0195
  change of cornea sensitivity: −31.4%
Mouse cornea nociception; Fosaprepitant 2 mg/ml one time, topical
  reduction of cornea sensitivity: did not significantly reduce cornea sensitivity
Mouse cornea nociception; Fosaprepitant 2 mg/ml, single shot vs 10 days treatment, p=0.0174
  change of cornea sensitivity: −27.1%
Mouse cornea nociception; Fosaprepitant 10 mg/ml single administration vs PBS, p=0.029
  reduction of nociception: −28.1%
Mouse cornea nociception; Fosaprepitant 10 mg/ml topical, p=0.0006 vs PBS
  maximum possible analgesic effect (MPE): 44.52%
Mouse cornea nociception; Fosaprepitant 50 mg/ml administered once, 30 minutes after administration
  corneal pain measured as eye wiping counts vs placebo: significantly reduces corneal pain
Mouse cornea nociception; Fosaprepitant 50 mg/ml topical, p=0.0001 vs PBS
  maximum possible analgesic effect (MPE): 52.62%
Mouse cornea nociception; Fosaprepitant 50 mg/ml vs PBS, p<0.0001
  MPE increase, overall: 21.03 points
Mouse cornea nociception; Fosaprepitant 50 mg/ml, first experiment, SD 14.6
  MPE (maximal possible effect): 48.4%
Mouse cornea nociception; Fosaprepitant 50 mg/ml, second experiment, SD 24.9
  MPE (maximal possible effect): 43.2%
Mouse cornea nociception; Fosaprepitant 50 mg/ml, third experiment, SD 16.6
  MPE (maximal possible effect): 44.2%
Mouse cornea nociception; Fosaprepitant single administration, 10 mg/ml vs 2 mg/ml, p=0.0005
  reduction of nociception: −23.1%
Mouse cornea nociception; single administration
  lower effective concentration in reducing corneal pain: 10 mg/mL
Mouse cornea nociception; single administration of Fosaprepitant 10 mg/ml, p<0.0001
  corneal sensitivity reduction, WT mice before vs after treatment: −47.9
Ocular pain; Fosaprepitant 10 mg/ml 6 times a day, 2 hours after the first instillation, baseline 9/10
  corneal pain score: 0/10
Ocular pain; [3]
  pain score: 0/10
Ocular pain; follow-up visit one month after study exit, not constant
  pain score: 1/10
Corneal sensitivity; Fosaprepitant 10 mg/ml 6 times a day, 2 hours after the first instillation, baseline 60 mm
  Cochet Bonnet aesthesiometry: 50 mm
Corneal sensitivity; [3]
  Cochet Bonnet aesthesiometry, reduction: 50%
Corneal sensitivity; follow-up visit one month after study exit
  corneal sensitivity: 60 mm
Ocular surface [1]
  signs of ocular surface toxicity: no gross signs of ocular surface toxicity
cornea
  signs of toxicity to the cornea: did not show obvious signs of toxicity to the cornea
Ocular surface [2]
  signs of ocular surface toxicity: no gross signs of ocular surface toxicity

## CCCCOc1cc(C(=O)OCCN(CC)CC)ccc1N [Oxybuprocaine]
Mouse cornea nociception; Oxybuprocaine 4 mg/ml topical, p<0.0001 vs Fosaprepitant 10 mg/ml
  % MPE: 80.59%
Mouse cornea nociception; Oxybuprocaine 4 mg/ml vs Fosaprepitant 50 mg/ml, p<0.0001
  MPE difference, Oxybuprocaine higher than Fosaprepitant: 35.89 MPE points
Mouse cornea nociception; Oxybuprocaine 4 mg/ml vs PBS, p<0.0001
  MPE increase, overall: 56.92 points
Mouse cornea nociception; Oxybuprocaine 4 mg/ml, topical
  corneal pain measured as eye wiping counts vs placebo and Fosaprepitant: significantly reduces corneal pain
Mouse cornea nociception; oxybuprocaine chloride 4 mg/ml, first experiment, SD 9.7
  MPE (maximal possible effect): 80.8%
Mouse cornea nociception; oxybuprocaine chloride 4 mg/ml, second experiment, SD 13.9
  MPE (maximal possible effect): 84.1%
Mouse cornea nociception; oxybuprocaine chloride 4 mg/ml, third experiment, SD 10.9
  MPE (maximal possible effect): 78.2%

## O=C(O)Cc1ccccc1Nc1c(Cl)cccc1Cl [Diclofenac]
Mouse cornea nociception; Diclofenac 0.1% topical, p=0.0029 vs Fosaprepitant 10 mg/ml
  % MPE: 69.66%
